{
  "source": "patent US20250376461A1",
  "about": "“INDAZOLE DERIVATIVES FOR TREATING TRPM3-MEDIATED DISORDERS” (Katholieke Universiteit Leuven, priority 2022, published 2025)",
  "data": [
    {"molecular_target": "T1, mouse TRPM3α2 (mTRPM3) ion channel (Mus musculus, UniProt J9SQF3)", "T1 construct": "expressed in transfected cells; host or cells: flip-in HEK293", "T1 sequence (J9SQF3 1-1709 isoform J9SQF3-12)": "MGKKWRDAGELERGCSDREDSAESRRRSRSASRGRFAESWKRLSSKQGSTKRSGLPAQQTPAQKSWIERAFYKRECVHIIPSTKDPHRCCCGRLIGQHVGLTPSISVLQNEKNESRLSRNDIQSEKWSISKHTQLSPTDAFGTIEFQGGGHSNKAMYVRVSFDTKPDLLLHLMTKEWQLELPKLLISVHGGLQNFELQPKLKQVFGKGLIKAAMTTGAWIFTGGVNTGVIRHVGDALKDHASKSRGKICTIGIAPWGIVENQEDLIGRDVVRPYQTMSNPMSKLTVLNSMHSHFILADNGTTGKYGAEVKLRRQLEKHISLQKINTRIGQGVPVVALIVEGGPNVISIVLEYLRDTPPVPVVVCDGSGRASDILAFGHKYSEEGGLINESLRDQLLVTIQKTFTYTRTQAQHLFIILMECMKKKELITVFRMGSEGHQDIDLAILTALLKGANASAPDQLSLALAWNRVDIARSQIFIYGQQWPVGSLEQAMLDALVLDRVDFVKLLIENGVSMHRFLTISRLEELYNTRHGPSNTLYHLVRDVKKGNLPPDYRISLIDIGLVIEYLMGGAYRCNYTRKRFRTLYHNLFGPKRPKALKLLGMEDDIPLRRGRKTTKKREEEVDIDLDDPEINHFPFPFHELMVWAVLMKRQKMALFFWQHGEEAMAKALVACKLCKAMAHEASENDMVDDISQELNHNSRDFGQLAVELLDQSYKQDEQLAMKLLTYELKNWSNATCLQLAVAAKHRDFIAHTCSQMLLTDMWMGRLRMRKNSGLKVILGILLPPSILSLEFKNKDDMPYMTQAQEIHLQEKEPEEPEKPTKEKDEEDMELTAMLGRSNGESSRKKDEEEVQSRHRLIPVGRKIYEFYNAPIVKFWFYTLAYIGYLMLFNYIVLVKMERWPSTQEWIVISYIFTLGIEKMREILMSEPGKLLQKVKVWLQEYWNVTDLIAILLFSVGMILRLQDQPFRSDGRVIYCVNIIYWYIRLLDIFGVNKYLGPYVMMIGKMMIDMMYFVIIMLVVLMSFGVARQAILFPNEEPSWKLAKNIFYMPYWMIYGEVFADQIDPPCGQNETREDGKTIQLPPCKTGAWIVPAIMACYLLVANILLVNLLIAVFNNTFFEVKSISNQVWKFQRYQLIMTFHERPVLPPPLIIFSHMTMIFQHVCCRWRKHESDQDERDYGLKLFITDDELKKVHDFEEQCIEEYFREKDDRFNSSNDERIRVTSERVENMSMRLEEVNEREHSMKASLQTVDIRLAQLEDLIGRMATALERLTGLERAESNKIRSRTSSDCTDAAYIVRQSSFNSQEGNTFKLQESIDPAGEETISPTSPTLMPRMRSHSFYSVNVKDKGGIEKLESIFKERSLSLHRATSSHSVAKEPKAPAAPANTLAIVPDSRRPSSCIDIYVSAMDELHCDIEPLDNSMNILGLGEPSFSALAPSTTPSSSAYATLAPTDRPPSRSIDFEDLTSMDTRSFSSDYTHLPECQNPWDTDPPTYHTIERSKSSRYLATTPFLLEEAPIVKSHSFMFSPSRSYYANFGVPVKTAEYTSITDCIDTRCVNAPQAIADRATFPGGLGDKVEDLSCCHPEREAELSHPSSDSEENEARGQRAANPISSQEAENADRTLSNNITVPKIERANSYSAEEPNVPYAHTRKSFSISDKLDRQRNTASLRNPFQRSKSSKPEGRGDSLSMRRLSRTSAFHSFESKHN", "assay": "TRPM3 ion channel driven Ca2+ uptake, Fluo-4 AM assay, mTRPM3alpha2 overexpressing flip-in HEK293 cells stimulated with pregnenolone sulfate (50 μM)", "assay_type": "cell-based", "conditions": "mTRPM3 overexpressing HEK293 cells stimulated with pregnenolone sulfate (50 μM), activity ranges A, B, C", "outline": "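Flip-in HEK293 cells overexpressing mTRPM3α2, loaded with Fluo-4 AM, added at ±2000 cells/well to plates holding compound plus 50 μM pregnenolone sulfate in Ca2+-containing Krebs buffer. Fluorescence (ex 485/em 535 nm) read immediately. Percent inhibition normalised between vehicle and positive-control inhibitor; IC50 derived.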", "units": {"IC50": "µM"}, "values": [
      {"molecule": "Cn1nccc1COc1ccc2nn(C)c(C(=O)NC3CCNC3=O)c2c1", "note": "(centres unmarked) [Cpd 062, 2-methyl-5-[(1-methyl-1H-pyrazol-5-yl)methoxy]-N-(2-oxopyrrolidin-3-yl)-2H-indazole-3-carboxamide]", "IC50": "> 20"},
      {"molecule": "Cc1ncsc1COc1ccc2nn(C)c(C(=O)NCC3CCC(=O)N3)c2c1", "note": "(centres unmarked) [Cpd 063, 2-methyl-5-[(4-methyl-1,3-thiazol-5-yl)methoxy]-N-[(5-oxopyrrolidin-2-yl)methyl]-2H-indazole-3-carboxamide]", "IC50": "1 to 20"},
      {"molecule": "Cc1ncsc1COc1ccc2nn(C)c(C(=O)NC3CCNC3=O)c2c1", "note": "(centres unmarked) [Cpd 064, 2-methyl-5-[(4-methyl-1,3-thiazol-5-yl)methoxy]-N-(2-oxopyrrolidin-3-yl)-2H-indazole-3-carboxamide]", "IC50": "1 to 20"},
      {"molecule": "Cn1nc2ccc(OCc3cccnc3C(F)(F)F)cc2c1C(=O)NC1(CCO)CCC1", "note": "[Cpd 065, N-[1-(2-hydroxyethyl)cyclobutyl]-2-methyl-5-{[2-(trifluoromethyl)pyridin-3-yl]methoxy}-2H-indazole-3-carboxamide]", "IC50": "1 to 20"},
      {"molecule": "Cn1nc2ccc(OCc3ccccc3)cc2c1C(=O)NCC1CCC(=O)N1", "note": "(centres unmarked) [Cpd 066, 5-(benzyloxy)-2-methyl-N-[(5-oxopyrrolidin-2-yl)methyl]-2H-indazole-3-carboxamide]", "IC50": "> 20"},
      {"molecule": "Cn1nccc1COc1ccc2nn(C)c(C(=O)NC3(CO)CC3)c2c1", "note": "[Cpd 067, N-[1-(hydroxymethyl)cyclopropyl]-2-methyl-5-[(1-methyl-1H-pyrazol-5-yl)methoxy]-2H-indazole-3-carboxamide]", "IC50": "> 20"},
      {"molecule": "Cn1nc2ccc(OCc3cccnc3C(F)(F)F)cc2c1C(=O)NCC(C)(C)N1CCOCC1", "note": "[Cpd 068, 2-methyl-N-[2-methyl-2-(morpholin-4-yl)propyl]-5-{[2-(trifluoromethyl)pyridin-3-yl]methoxy}-2H-indazole-3-carboxamide]", "IC50": "1 to 20"},
      {"molecule": "Cn1nccc1COc1ccc2nn(C)c(C(=O)NCC3CCC(=O)N3)c2c1", "note": "(centres unmarked) [Cpd 069, 2-methyl-5-[(1-methyl-1H-pyrazol-5-yl)methoxy]-N-[(5-oxopyrrolidin-2-yl)methyl]-2H-indazole-3-carboxamide]", "IC50": "> 20"},
      {"molecule": "Cc1ncsc1COc1ccc2nn(C)c(C(=O)NC3(C(N)=O)CCC3)c2c1", "note": "[Cpd 070, N-(1-carbamoylcyclobutyl)-2-methyl-5-[(4-methyl-1,3-thiazol-5-yl)methoxy]-2H-indazole-3-carboxamide]", "IC50": "< 1"},
      {"molecule": "CN1CCC(NC(=O)c2c3cc(OCc4ccnn4C)ccc3nn2C)C1", "note": "(centres unmarked) [Cpd 071, 2-methyl-5-[(1-methyl-1H-pyrazol-5-yl)methoxy]-N-(1-methylpyrrolidin-3-yl)-2H-indazole-3-carboxamide]", "IC50": "1 to 20"},
      {"molecule": "Cc1ncsc1COc1ccc2nn(C)c(C(=O)NCC3(N(C)C)CCC3)c2c1", "note": "[Cpd 072, N-{[1-(dimethylamino)cyclobutyl]methyl}-2-methyl-5-[(4-methyl-1,3-thiazol-5-yl)methoxy]-2H-indazole-3-carboxamide]", "IC50": "1 to 20"},
      {"molecule": "Cn1nc2ccc(OCc3cccnc3C(F)(F)F)cc2c1C(=O)NCCN1CCOC1=O", "note": "[Cpd 073, 2-methyl-N-[2-(2-oxo-1,3-oxazolidin-3-yl)ethyl]-5-{[2-(trifluoromethyl)pyridin-3-yl]methoxy}-2H-indazole-3-carboxamide]", "IC50": "1 to 20"},
      {"molecule": "Cn1nc2ccc(OCc3ccccc3)cc2c1C(=O)NC1(CO)CCOCC1", "note": "[Cpd 074, 5-(benzyloxy)-N-[4-(hydroxymethyl)oxan-4-yl]-2-methyl-2H-indazole-3-carboxamide]", "IC50": "1 to 20"},
      {"molecule": "Cc1ncsc1COc1ccc2nn(C)c(C(=O)NC3CCN(C)C3)c2c1", "note": "(centres unmarked) [Cpd 075, 2-methyl-5-[(4-methyl-1,3-thiazol-5-yl)methoxy]-N-(1-methylpyrrolidin-3-yl)-2H-indazole-3-carboxamide]", "IC50": "1 to 20"},
      {"molecule": "Cn1nc2ccc(OCc3cccnc3C(F)(F)F)cc2c1C(=O)NC(C)(C)CO", "note": "[Cpd 076, N-(1-hydroxy-2-methylpropan-2-yl)-2-methyl-5-{[2-(trifluoromethyl)pyridin-3-yl]methoxy}-2H-indazole-3-carboxamide]", "IC50": "1 to 20"},
      {"molecule": "Cn1nc2ccc(OCc3cccnc3C(F)(F)F)cc2c1C(=O)NC1CCN(CC(F)(F)F)C1", "note": "(centres unmarked) [Cpd 077, 2-methyl-N-[1-(2,2,2-trifluoroethyl)pyrrolidin-3-yl]-5-{[2-(trifluoromethyl)pyridin-3-yl]methoxy}-2H-indazole-3-carboxamide]", "IC50": "1 to 20"},
      {"molecule": "CN(C)C1(CNC(=O)c2c3cc(OCc4ccccc4)ccc3nn2C)CCC1", "note": "[Cpd 078, 5-(benzyloxy)-N-{[1-(dimethylamino)cyclobutyl]methyl}-2-methyl-2H-indazole-3-carboxamide]", "IC50": "1 to 20"},
      {"molecule": "Cn1nccc1COc1ccc2nn(C)c(C(=O)NC3(CCO)CCC3)c2c1", "note": "[Cpd 079, N-[1-(2-hydroxyethyl)cyclobutyl]-2-methyl-5-[(1-methyl-1H-pyrazol-5-yl)methoxy]-2H-indazole-3-carboxamide]", "IC50": "> 20"},
      {"molecule": "CN1CC(NC(=O)c2c3cc(OCc4cccnc4C(F)(F)F)ccc3nn2C)C(F)(F)C1", "note": "(centres unmarked) [Cpd 081, N-(4,4-difluoro-1-methylpyrrolidin-3-yl)-2-methyl-5-{[2-(trifluoromethyl)pyridin-3-yl]methoxy}-2H-indazole-3-carboxamide]", "IC50": "1 to 20"},
      {"molecule": "C[C@H](NC(=O)c1c2cc(OCc3ccccn3)ccc2nn1C)C(N)=O", "note": "[Cpd 082, (2S)-2-({2-methyl-5-[(pyridin-2-yl)methoxy]-2H-indazol-3-yl}formamido)propanamide]", "IC50": "1 to 20"},
      {"molecule": "C[C@@H](NC(=O)c1c2cc(OCc3ccccn3)ccc2nn1C)C(N)=O", "note": "[Cpd 083, (2R)-2-({2-methyl-5-[(pyridin-2-yl)methoxy]-2H-indazol-3-yl}formamido)propanamide]", "IC50": "1 to 20"},
      {"molecule": "CN1CCC(NC(=O)c2c3cc(OCc4ccccn4)ccc3nn2C)CC1", "note": "[Cpd 084, 2-methyl-N-(1-methylpiperidin-4-yl)-5-[(pyridin-2-yl)methoxy]-2H-indazole-3-carboxamide]", "IC50": "1 to 20"},
      {"molecule": "Cn1nc2ccc(OCc3ccccn3)cc2c1C(=O)NC1(C(N)=O)CCOCC1", "note": "[Cpd 085, N-(4-carbamoyloxan-4-yl)-2-methyl-5-[(pyridin-2-yl)methoxy]-2H-indazole-3-carboxamide]", "IC50": "1 to 20"},
      {"molecule": "Cn1nc2ccc(OCc3ccccn3)cc2c1C(=O)NC1(CO)CCC1", "note": "[Cpd 086, N-[1-(hydroxymethyl)cyclobutyl]-2-methyl-5-[(pyridin-2-yl)methoxy]-2H-indazole-3-carboxamide]", "IC50": "1 to 20"},
      {"molecule": "Cn1nc2ccc(OCc3cccnc3C(F)(F)F)cc2c1C(=O)NC1(C(N)=O)COC1", "note": "[Cpd 087, N-(3-carbamoyloxetan-3-yl)-2-methyl-5-{[2-(trifluoromethyl)pyridin-3-yl]methoxy}-2H-indazole-3-carboxamide]", "IC50": "1 to 20"},
      {"molecule": "CN1CC(NC(=O)c2c3cc(OCc4ccnn4C)ccc3nn2C)C(F)(F)C1", "note": "(centres unmarked) [Cpd 088, N-(4,4-difluoro-1-methylpyrrolidin-3-yl)-2-methyl-5-[(1-methyl-1H-pyrazol-5-yl)methoxy]-2H-indazole-3-carboxamide]", "IC50": "> 20"},
      {"molecule": "Cc1ncsc1COc1ccc2nn(C)c(C(=O)NCc3cccc(O)n3)c2c1", "note": "[Cpd 089, N-[(6-hydroxypyridin-2-yl)methyl]-2-methyl-5-[(4-methyl-1,3-thiazol-5-yl)methoxy]-2H-indazole-3-carboxamide]", "IC50": "< 1"},
      {"molecule": "Cn1nc2ccc(OCc3cccnc3C(F)(F)F)cc2c1C(=O)NC1CCN(CCO)C1=O", "note": "(centres unmarked) [Cpd 090, N-[1-(2-hydroxyethyl)-2-oxopyrrolidin-3-yl]-2-methyl-5-{[2-(trifluoromethyl)pyridin-3-yl]methoxy}-2H-indazole-3-carboxamide]", "IC50": "1 to 20"},
      {"molecule": "Cn1nc2ccc(OCc3ccccc3)cc2c1C(=O)NC(CO)C(F)(F)F", "note": "(centres unmarked) [Cpd 091, 5-(benzyloxy)-2-methyl-N-(1,1,1-trifluoro-3-hydroxypropan-2-yl)-2H-indazole-3-carboxamide]", "IC50": "1 to 20"},
      {"molecule": "CN1CCC(NC(=O)c2c3cc(OCc4ccccc4)ccc3nn2C)C1", "note": "(centres unmarked) [Cpd 092, 5-(benzyloxy)-2-methyl-N-(1-methylpyrrolidin-3-yl)-2H-indazole-3-carboxamide]", "IC50": "1 to 20"},
      {"molecule": "CN1CCC(NC(=O)c2c3cc(OCc4ccccc4F)ccc3nn2C)CC1", "note": "[Cpd 093, 5-[(2-fluorophenyl)methoxy]-2-methyl-N-(1-methylpiperidin-4-yl)-2H-indazole-3-carboxamide]", "IC50": "1 to 20"},
      {"molecule": "Cn1nc2ccc(OCc3ccccc3F)cc2c1C(=O)NC1(CO)CCC1", "note": "[Cpd 094, 5-[(2-fluorophenyl)methoxy]-N-[1-(hydroxymethyl)cyclobutyl]-2-methyl-2H-indazole-3-carboxamide]", "IC50": "1 to 20"},
      {"molecule": "Cn1nc2ccc(OCc3ccccc3F)cc2c1C(=O)NC1(CO)CC1", "note": "[Cpd 095, 5-[(2-fluorophenyl)methoxy]-N-[1-(hydroxymethyl)cyclopropyl]-2-methyl-2H-indazole-3-carboxamide]", "IC50": "1 to 20"},
      {"molecule": "Cn1nc2ccc(OCc3ccccc3F)cc2c1C(=O)NC1(CO)CCOCC1", "note": "[Cpd 096, 5-[(2-fluorophenyl)methoxy]-N-[4-(hydroxymethyl)oxan-4-yl]-2-methyl-2H-indazole-3-carboxamide]", "IC50": "1 to 20"},
      {"molecule": "Cn1nc2ccc(OCc3ccccc3F)cc2c1C(=O)NC1(C(N)=O)CCOCC1", "note": "[Cpd 097, N-(4-carbamoyloxan-4-yl)-5-[(2-fluorophenyl)methoxy]-2-methyl-2H-indazole-3-carboxamide]", "IC50": "< 1"},
      {"molecule": "C[C@@H](NC(=O)c1c2cc(OCc3ccccc3F)ccc2nn1C)C(N)=O", "note": "[Cpd 098, (2R)-2-({5-[(2-fluorophenyl)methoxy]-2-methyl-2H-indazol-3-yl}formamido)propanamide]", "IC50": "1 to 20"},
      {"molecule": "C[C@H](NC(=O)c1c2cc(OCc3ccccc3F)ccc2nn1C)C(N)=O", "note": "[Cpd 099, (2S)-2-({5-[(2-fluorophenyl)methoxy]-2-methyl-2H-indazol-3-yl}formamido)propanamide]", "IC50": "< 1"},
      {"molecule": "Cn1nc2ccc(OCc3ccccn3)cc2c1C(=O)NC1(CO)COC1", "note": "[Cpd 100, N-[3-(hydroxymethyl)oxetan-3-yl]-2-methyl-5-[(pyridin-2-yl)methoxy]-2H-indazole-3-carboxamide]", "IC50": "1 to 20"}
    ]}
  ]
}
